Measured values as given in US12264185B2, “Stabilized BCL9 peptides for treatment of aberrant Wnt signaling” (WntRx Pharmaceuticals Inc., priority 2015, dated 2025).
Where “and” joins values, the source holds several entries; their conditions need not be identical. Equal entries are not always repeated. Where two headings read alike, the source gives them in different places.

Experiments:
[1] = system: JAK/STAT; assay: JAK/STAT transcription assay (SIE-bla ME-180 cell line); type: cell-based
Excerpt: (§1) In these assays, the trifluoroacetic salt form of WX-024 was used.

[2] = Toxicokinetics, 14 days i.p., female balb/c mice; conditions: for half-life: female, balb/c, mouse, plasma, ip
[3] = system: NCI-H1299-Luc cells; assay: NCI-H1299-Luc orthotopic model in balb/c nude mice; type: in vivo; conditions: 15 mg/kg i.v. daily, 10 days
Excerpt: Orthotopic mouse models are useful to visualize the effect of an anti-tumor compound on a tumor implanted in a mouse and to assess the effect of the compound on tumor metastasis. An orthotropic model utilizing the NCI-H1299-Luc cell line (non-small-cell lung carcinoma cell line expressing luciferase) was selected for this experiment. Upon uptake of luciferin substrate, these cells are capable of producing bioluminescence. Proliferation of the NCI-H1299 cell line is dependent on Pygopus (Pygo) 2/β-catenin transcription activity, in which TCF-1 transcription factors (BCL9, β-cat and Pygo) form a transcription complex to initiate transcription.
The mice were about 5 weeks of age. NCI-H1299-Luc cells (5×10^6) in 50 μL in PBS were injected into each mouse lung with a syringe.
The bioluminescence intensity (total Flux [p/s]) of each mouse was measured periodically throughout the study according to manufacturer protocol (Xenogen ivis imaging system, PerkinElmer).

[4] = Pharmacokinetics in male ICR mice; conditions: mouse, plasma, 5 mg/kg
Description: The tail vein was used for i.v. injections. […] Following injections, blood samples were obtained via the retro-orbital vein at 5 min, 1, 2, 4, 6, 8, 12, and 24 hours postdose. Plasma was obtained from the blood samples following mixing with sodium heparin and centrifugation.
LC analysis was done using an Agilent 100 HPLC. MS analysis was done using an AB Sciex API 4000. Calibration standards were prepared by serial dilution.
The maximum observed concentration (Cmax), terminal half-life (T1/2), total body clearance (CL), volume of distribution (Vz), area under the curve from the time of dosing to the last measurable concentration (AUC0-t), area under the curve from the time of dosing extrapolated to infinity (AUC0-inf), and bioavailability were calculated using noncompartmental analysis modules in the FDA-certified pharmacokinetic program WinNonlin Professional v5.2 (Pharsight).
Briefly, the mice were administered 1 mg/kg or 5 mg/kg intravenously, or 5 mg/kg intraperitoneally. Blood samples were collected at 15 min, 1, 2, 3, 6, 8, 12, and 24 hours post administration.

[5] = system: B16F10 cells; assay: B16F10 syngeneic model in C57BL/6 mice; type: in vivo
Description: C57BL/6 mice were inoculated with B16F10 cells. Female C57BL/6 mice aged 4-5 weeks were inoculated with B16F10 cells (2×10^5 cells in 0.05 ml per mouse) in the right flank. When the average tumor size of the mice reached 100 mm^3, the mice were divided into two groups (N=6). […] The treatment was intraperitoneally administered daily for 14 consecutive days.
The treatment was intraperitoneally administered daily for 12 consecutive days. At the end of the treatment, the mice were sacrificed and tumor and blood samples were collected in anticoagulation tubes. Single cell separation was performed for each sample and then stained for FACS analysis. For cell surface staining, CD45-PerCP-Cy5, CD4-FITC, CD8-PE-Cy7, and CD25-PE were used. The tumor samples were then stained with either an anti-CD4 antibody or an anti-CD8 antibody to assess the presence of T cells in the tumor samples. The tumor samples were also stained with an anti-CD194 antibody and anti-CD196 antibody to assess the presence of T helper 17 cells in the tumor samples.
The process of constructing WX-039 is described in Example 10. C57BL/6 mice were inoculated with B16F10 cells. […] The treatment was intraperitoneally administered daily for 12 consecutive days. At the end of the treatment, the mice were sacrificed and tumor and blood samples were collected in anticoagulation tubes. Tumor cells collected from the experiment were stained as described above and also with anti-CD205 antibody to assess whether WX compounds are capable of modulating dendritic cells.
The ability of WX-039 to suppress tumor growth was assessed in the animal model described in Example 5.4. Briefly, C57BL/6 mice were inoculated with B16 cells. Female C57BL/6 mice aged 5 weeks were inoculated with B16F10 cells (2×10^5 cells in 0.05 ml per mouse) in the right flank. When the average tumor size of the mice reached 100 mm^3, the mice were divided into two groups (N=3). The first group was administered 60 mg/kg WX-039 while the second group was treated with a vehicle. The treatment was intraperitoneally administered daily for 12 consecutive days.

[6] = Toxicology study, 14 days i.v., female balb/c mice; type: in vivo
Description: At the end of the study, the mice were sacrificed and various major organs were collected. The tissue samples were treated and processed as described in Example 5.5. […] The body weight of each moue was monitored throughout the study and the average body weight of each treatment group is shown in FIG. 30B. […] At the end of the study, blood from each mouse was also collected for serum chemistry and hematological analysis (complete blood cell count analysis).

[7] = system: PI3K/AKT/FOXO; assay: PI3K/AKT/FOXO transcription assay (TREx FOXO3-DBE-bla HeLa cell line); type: cell-based
Excerpt: as §1

[8] = IP-10 mg/kg, after the first dosing (day 1)
[9] = IP-15 mg/kg, after the first dosing (day 1)
[10] = IP-20 mg/kg, after the first dosing (day 1)
[11] = 20 mg/kg WX-024 or 60 mg/kg WX-039 i.p. daily, 12 days

CC[C@H](C)[C@@H]1NC(=O)[C@@](C)(NC(=O)[C@H](CCCNC(=N)N)NC(=O)[C@H](CC(C)C)NC(=O)[C@@H](NC(=O)[C@H](CCC(N)=O)NC(=O)[C@H](CC(C)C)NC(C)=O)[C@@H](C)O)CCCC=CCCC[C@@](C)(C(=O)N[C@@H](CC(C)C)C(=O)N[C@@H](Cc2ccc3ccccc3c2)C(N)=O)NC(=O)[C@H](CCCNC(=N)N)NC(=O)[C@H](CCC(N)=O)NC1=O [WX-024, LQTLRXaa1IQRXaa2L]
IC50 ([1]; Example 4.5, read-out: IC50, JAK/STAT transcription assay): > 10 µM
IC50 ([1]; summary, Example 6, read-out: IC50, JAK/STAT reporter assay): > 0.1 µM
AUCINF [2, 8]: 117 µg·h/mL
AUClast [2, 8]: 114333 ng·h/mL
Cmax [2, 8]: 11390 ng/mL
Terminal t1/2 [2, 8]: 4.52 h
Tmax [2, 8]: 1.50 h
Cmax ([2]; IP-10 mg/kg, after the last dosing (day 14)): 11360 ng/mL
AUCINF [2, 9]: 129.1 µg·h/mL
AUClast [2, 9]: 118,033 hr*ng/mL
Cmax [2, 9]: 9767 ng/mL
Terminal t1/2 [2, 9]: 7.59 h
AUCINF [2, 10]: 175.333 µg·h/mL
AUClast [2, 10]: 162,333 hr*ng/mL
Cmax [2, 10]: 12733 ng/mL
Terminal t1/2 [2, 10]: 6.47 h
Tmax [2, 10]: 2.67 h
half-life ([2]; 10 mg/kg): 418 min
half-life ([2]; 15 mg/kg): 255 min
half-life ([2]; 20 mg/kg): 273 min
tumor formation and growth (bioluminescence total flux) [3]: almost completely blocked tumor formation and growth in vivo
bioavailability ([4]; ip): 73.6%
Cmax ([4]; iv): 47400 ng/mL and > 30 µM
T helper 17 cells in tumor [5, 11]: more effective than WX-039
dendritic cells (CD205+) in tumor [5, 11]: significantly reduced
CD4+ positive cells in tumor samples ([5]; 25 mg/kg i.p. daily, 12 days): increased
CD8+ positive cells in tumor samples ([5]; 25 mg/kg i.p. daily, 12 days): increased
tumor growth compared to vehicle ([5]; 25 mg/kg i.p. daily, 14 days): effectively reduced tumor growth
blood cell count profile vs vehicle ([6]; 20 mg/kg i.v. daily): did not differ significantly
average body weight ([6]; 10, 15 or 20 mg/kg i.v. daily): stabilized and was maintained throughout the study
food consumption ([6]; 10, 15 or 20 mg/kg i.v. daily): recovered to near baseline levels with continued treatment
IC50 ([7]; Example 4.5, read-out: IC50, PI3K/AKT/FOXO transcription assay): > 10000 nM
IC50 ([7]; TREx FOXO3-DBE-bla HeLa, Insulin stimulation, trifluoroacetic salt form, read-out: IC50 (nM), PI3K/AKT/FOXO3 pathway): > 1000 nM
IC50 ([7]; summary, Example 6, read-out: IC50, PI3K/AKT/FOXO3 reporter assay): > 100 nM
